In patent EP0491813B1, “BIODEGRADABLE CONTROLLED RELEASE MATRICES” (priority 1989, dated 1991) one finds LD50 data, which are given here for one compound.

As a reminder, the LD50 is the dose at which mortality reaches 50%.

A short description of the data set: dermal toxicity test with moistened product (US EPA guidelines), samples secured to skin for 24 hours. The following applies: rabbit, in vivo, topical or ocular, male rabbits, 24 hours exposure, survivors observed for 14 days, read-out: LD50 DOSAGE. As for the experimental part: Dermal toxicity tests using this formulation, a conventional synthetic polymer formulation comprising 10% w/w phorate and pure phorate (10% w/w) were performed on male rabbits by securing samples to the skin of the test animals for a period of 24 hours. At the expiry of this period rabbits were examined for mortality and surviving rabbits observed for 14 days before sacrifice and examination. The LD50 values are shown below in table 3.

As to `CCOP(=S)(OCC)SCSCC` [Technical grade phorate (10% w/w), phorate], the LD50 came to 5.2 mg/kg.
